Measurements reported in ChEMBL document CHEMBL4385611, “Difluoromethylene at the γ-Lactam α-Position Improves 11-Deoxy-8-aza-PGE1 Series EP4 Receptor Binding and Activity: 11-Deoxy-10,10-difluoro-8-aza-PGE1 Analog (KMN-159) as a Potent EP4 Agonist” (J Med Chem, 2019).

What was measured:
[1] = biological target: T1, Prostaglandin E2 receptor EP2 subtype (Homo sapiens, UniProt P43116); assay: Displacement of [3H]PGE2 from human recombinant EP2 receptor expressed in HEK293 cell membranes after 120 mins by liquid scintillation counting method
T1 sequence (P43116 whole entry): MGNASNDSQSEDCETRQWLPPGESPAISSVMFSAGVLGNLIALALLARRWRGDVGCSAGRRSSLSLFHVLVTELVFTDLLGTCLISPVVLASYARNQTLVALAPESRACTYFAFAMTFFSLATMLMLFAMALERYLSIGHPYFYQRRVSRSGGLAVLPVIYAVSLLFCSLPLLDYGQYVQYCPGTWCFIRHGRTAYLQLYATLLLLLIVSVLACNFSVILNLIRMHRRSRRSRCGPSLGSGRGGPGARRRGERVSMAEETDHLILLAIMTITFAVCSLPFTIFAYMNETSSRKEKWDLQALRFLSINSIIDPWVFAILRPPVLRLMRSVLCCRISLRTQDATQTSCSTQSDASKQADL

[2] = biological target: T2, Prostaglandin E2 receptor EP3 subtype (Homo sapiens, UniProt P43115); assay: Displacement of [3H]PGE2 from human recombinant EP3 receptor expressed in HEK293 cell membranes after 120 mins by liquid scintillation counting method
T2 sequence (P43115 whole entry): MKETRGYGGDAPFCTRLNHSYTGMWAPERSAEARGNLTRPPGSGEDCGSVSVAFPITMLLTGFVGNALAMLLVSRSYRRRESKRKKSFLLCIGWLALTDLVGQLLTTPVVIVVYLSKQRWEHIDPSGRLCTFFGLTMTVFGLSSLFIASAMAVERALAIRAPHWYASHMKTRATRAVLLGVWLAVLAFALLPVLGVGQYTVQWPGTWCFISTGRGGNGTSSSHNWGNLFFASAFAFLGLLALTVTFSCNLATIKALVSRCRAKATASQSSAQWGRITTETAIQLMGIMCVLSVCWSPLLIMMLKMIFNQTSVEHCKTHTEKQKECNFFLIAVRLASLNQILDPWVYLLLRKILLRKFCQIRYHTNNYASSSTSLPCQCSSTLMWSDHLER

[3] = biological target: T3, Prostaglandin E2 receptor EP4 subtype (Homo sapiens, UniProt P35408); assay: Displacement of [3H]PGE2 from human recombinant EP4 receptor expressed in HEK293 cell membranes after 120 mins by liquid scintillation counting method
T3 sequence (P35408 whole entry): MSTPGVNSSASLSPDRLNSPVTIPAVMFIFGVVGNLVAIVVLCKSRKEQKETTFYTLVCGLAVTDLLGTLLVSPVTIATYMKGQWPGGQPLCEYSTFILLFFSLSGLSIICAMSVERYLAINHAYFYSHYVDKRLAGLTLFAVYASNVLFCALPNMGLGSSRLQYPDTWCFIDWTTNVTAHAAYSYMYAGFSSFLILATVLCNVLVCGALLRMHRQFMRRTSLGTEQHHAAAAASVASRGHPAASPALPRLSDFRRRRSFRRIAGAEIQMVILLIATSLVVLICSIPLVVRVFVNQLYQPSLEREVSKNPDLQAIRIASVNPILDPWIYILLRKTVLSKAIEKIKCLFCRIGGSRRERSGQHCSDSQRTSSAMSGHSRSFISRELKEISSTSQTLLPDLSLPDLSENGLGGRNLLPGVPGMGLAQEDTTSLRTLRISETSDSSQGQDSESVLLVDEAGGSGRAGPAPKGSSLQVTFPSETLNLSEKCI

[4] = biological target: T3, Prostaglandin E2 receptor EP4 subtype; assay: Agonist activity at human EP4 receptor expressed in HEK293T/17 cells assessed as increase in intracellular cAMP level incubated for 30 mins by ELISA; type: functional, cell-based
[5] = biological target: T1, Prostaglandin E2 receptor EP2 subtype; assay: Agonist activity at human EP2 receptor expressed in HEK293T/17 cells assessed as increase in intracellular cAMP level incubated for 30 mins by ELISA; type: functional, cell-based
[6] = biological target: T3, Prostaglandin E2 receptor EP4 subtype; assay: Agonist activity at human EP4 receptor expressed in HEK293T/17 cells assessed as increase in GalphaS-mediated CREB activation measured after 6 to 24 hrs by SEAP reporter gene-based chemiluminescence assay; type: functional, cell-based
[7] = biological target: T1, Prostaglandin E2 receptor EP2 subtype; assay: Agonist activity at human EP2 receptor expressed in HEK293T/17 cells assessed as increase in GalphaS-mediated CREB activation measured after 6 to 24 hrs by SEAP reporter gene-based chemiluminescence assay; type: functional, cell-based
[8] = biological target: T1, Prostaglandin E2 receptor EP2 subtype; assay: Agonist activity at human EP2 receptor expressed in HEK293T/17 cells assessed as increase in intracellular cAMP level at 10 uM incubated for 30 mins by ELISA relative to control; type: functional, cell-based
[9] = biological target: T1, Prostaglandin E2 receptor EP2 subtype; assay: Agonist activity at human EP2 receptor expressed in HEK293T/17 cells assessed as increase in GalphaS-mediated CREB activation at 10 uM measured after 6 to 24 hrs by SEAP reporter gene-based chemiluminescence assay relative to control; type: functional, cell-based

| EC50 [4] | Compound | Ki [1] | Ki [2] | Ki [3] | EC50 [5] | EC50 [6] | EC50 [7] | Activity [8] | Activity [9] |
| --- | --- | --- | --- | --- | --- | --- | --- | --- | --- |
| 0.348 nM | CCCCC[C@H](O)/C=C/[C@H]1CC(F)(F)C(=O)N1CCCCCCC(=O)O | 329 nM | 350 nM | 0.2 nM | > 10000 nM | 0.021 nM | 2270 nM | < 50% |  |
|  | COCc1cccc(C[C@H](O)/C=C/[C@H]2[C@H](O)CC(=O)[C@@H]2CCSCCCC(=O)O)c1 |  |  | 0.396 nM | 10000 nM | 0.01 nM | 610 nM | < 50% |  |
|  | CCCCC[C@H](O)/C=C/[C@H]1CCC(=O)N1CCCCCCC(=O)O | 1460 nM | 1170 nM | 1.61 nM | > 10000 nM | 0.065 nM | > 10000 nM | < 50% | < 50% |
